{"source": "patent US20050106270A1", "about": "“Chemical treatment of in vivo tissue to alter charge and net charge density characteristics” (priority 2003, published 2005)", "key": {"articular cartilage": {"test_system": "articular cartilage", "test": "Rabbit articular cartilage slices, stress-strain analysis and histology", "details": "3 minutes exposure; for High Modulus Region Pa) / Low Region Modulus (Pa): 5 mg/ml in 0.02M disodium phosphate; for histological examination, control vs treated articular cartilage: 5 mg/ml", "experimental": "Articular cartilage was dissected from both femoral and tibial chondyles of sacrificed rabbits. Cartilage slices were stored in sterile physiological saline. Eight slices of similar size (about 2 mm×2 mm) were placed in individual Eppendorf tubes. Physiological saline was replaced with 0.02M disodium phosphate at pH 8.5. […] Three specimens were treated with 0.02M disodium phosphate containing 5 mg/ml glutaric anhydride (95%). The remaining three specimens were treated with 0.02M disodium phosphate containing 5 mg/ml of acetic anhydride. Samples were exposed to control solution or acylation chemical for 3 minutes and then washed three times with sterile phosphate buffered saline (0.04M) at pH 7.2."}, "cat cornea": {"test_system": "cat cornea", "test": "In vivo cat model, corneal power by topographical mapping and optical examinations", "experimental": "Two cats were treated with the active agent, glutaric anhydride. Treatment was applied to the right eye (OD) while the contra lateral eye (OS) served as a control. Buffer solution (0.02M disodium phosphate solution at pH 9.0) was first applied to the corneal surface. This was immediately followed by application of a solution of glutaric anhydride in disodium phosphate into a peripheral ring of a corneal mold placed on the corneal surface. The mold provided a tight seal to prevent migration of the active agent to the central cornea. Two treatment applications were provided at Day 1 and Day 7. The dosage of the active agent was 50 mg/mL. Eyes were examined for another 7 days following the second treatment."}, "[1]": {"test_system": "cornea of enucleated porcine eyes", "test": "Enucleated porcine eyes, corneal power by topographical mapping (Optikon 2000)", "details": "for Post-treatment Power (D), corneal power by topographical mapping: 1 minute exposure", "source_text": "Eyes were procured from a local slaughterhouse, positioned in a device to stabilize the eye and subjected to topographical evaluation using the Optikon 2000 system. The corneal surface was dried using sterile gauze and then wetted with drops of buffer solution. The wetted eyes were again dried and exposed again to the same solution. Then a peripheral ring around the circumference of the corneal surface, slightly away from the limbus and the central cornea, was carefully treated by adding drops of buffer containing the active agent, a 20 mg/ml solution of glutaric anhydride. The eyes were then reexamined topographically and photos taken. Following evaluation, the eyes were placed in OptiSol for storage pending additional evaluations. Three eyes were treated using this protocol. In two eyes the active agent at 20 mg/mL was applied to a ring around the corneal periphery. The exposure width was approximately 1 mm. In one eye the active agent at 20 mg/mL was applied to a 2 mm diameter area on the apex of the central cornea. The exposure time was 1 minute. All eyes were then washed with neutral pH phosphate buffer."}, "[2]": {"test_system": "reconstituted, lyophilized human dermis", "test": "Third series: reconstituted lyophilized human dermis exposed to acylation agent", "source_text": "In a third series of experiments, reconstituted, lyophilized human dermis samples were exposed to the acylation agents (glutaric anhydride). Again, dermal thickness increased from about 1 mm to 2 mm due to increased water binding. In addition, dermal pliability was increased as evidenced by the decreased relaxation time. It is hypothesized that the reactive agent changes the net charge distribution on collagen fibrils reducing the intensity of intrafibrillar interactions and increasing pliability. Increased water binding and pliability are characteristics associated with young skin."}, "dermal tissue": {"test_system": "dermal tissue", "test": "Second experiment: stress-strain analysis of dermal tissue strips (Sample C vs Sample D, FIG. 5)", "set-up": "species or system human", "details": "fresh 100 mg/mL anhydride solution", "experimental": "FIG. 5 is a graph showing the stress-strain analysis of dermal tissue specimen C and dermal tissue specimen D after treating the specimens with the same acylating agent under different treatment conditions.\nIn a second experiment one strip (Sample C) of dermal tissue was exposed to a 100 mg/mL anhydride solution. A second strip (Sample D) was exposed to the same anhydride solution after about 2 minutes."}, "[3]": {"test_system": "processed human skin (lyophilized dermis)", "test": "Acylation of processed human skin (lyophilized dermis), mechanical properties", "details": "1 minute treatment", "experimental": "Processed human skin was obtained for treatment. The processed skin was comprised of lyophilized dermis. Four samples were tested, two 2 cm×4 cm specimens and two 2 cm×8 cm specimens. Two sets of specimens were treated with 50 mg/mL of glutaric anhydride (dose #1) and the other two sets with 100 mg/mL of glutaric anhydride (dose #2). The rejuvenation agents were prepared in dilute buffer solution. Prior to treatment with the active agent, skin specimens were pre-treated with buffer alone. Treatments were completed in 1 minute."}, "[4]": {"test_system": "cornea of whole porcine (pig) eyes", "test": "Treatment of trephined enucleated porcine eyes, inspection of corneal curvature", "details": "50 mg/mL in 0.2M disodium phosphate pH 9.0, 1 minute, 7 mm trephined ring", "experimental": "Whole, fresh porcine (pig) eyes were obtained from a local abattoir and immediately placed in Optisol GS preservation solution. The whole eye was placed in a holder allowing the corneal surface to be exposed. A 7 mm trephine was used to cut through the epithelium and penetrate the superficial corneal tissue. The corneal surface was then flooded with 0.2M disodium phosphate solution, pH 9.0. After 1 minute, the surface of the cornea was dried using an absorbent wipe (Kim Wipe). The corneal surface was immediately treated with 0.2M disodium phosphate solution, pH 9.0, containing 50 mg/mL of glutaric anhydride. After 1 minute of exposure, the cornea was flushed with phosphate buffered saline, pH 7.2. The surface of the cornea was inspected and the corneal curvature examined and compared to untreated eyes. […] The application of glutaric anhydride to a trephined peripheral ring of a pig cornea produced obvious flattening of the central cornea. It is believed that this technique might provide a simple, non-surgical method for treating myopia by inducing swelling in defined ring on the corneal periphery, thereby causing flattening of the central cornea."}, "[5]": {"test_system": "sclera tissue of bovine eyes", "test": "Softening of bovine sclera tissue, compression analysis", "details": "100 mg/mL, 1 minute exposure", "experimental": "Bovine eyes were procured from a local slaughterhouse and stored in Optisol solution. Whole eyes were removed from the preservation solution and the sclera dried using Kim wipes. A solution of 0.2M disodium phosphate, pH 9.5 was applied to the dried sclera tissue. The tissue was exposed to the disodium phosphate solution for 1 minute. The tissue was again dried using a Kim wipe and a solution containing 100 mg/mL of glutaric anhydride in […] was exposed to the anhydride solution for 1 minute and the tissue then thoroughly rinsed with sterile 0.02M phosphate buffer, pH 7.2. The exposed tissue was examined for tissue softening. […] Sclera tissue softening was also obvious by application of thumb pressure to treated and untreated areas of the sclera tissue. It is proposed that sclera softening using acylating agents may be used to expand sclera tissue, thereby permitting more space for the ciliary body to expand and contract the lens."}}, "note": "Several values for one entry are separate records, joined by “and”; a condition that tells them apart may be missing. Equal values may be shown once."}
{"compound": "CC(=O)OC(C)=O", "note": "[acetic anhydride]", "values": [{"measurement": "High Modulus Region Pa)", "setting": "articular cartilage", "result": 47.7, "unit": "Pa"}, {"measurement": "Low Region Modulus (Pa)", "setting": "articular cartilage", "result": 16.6, "unit": "Pa"}, {"measurement": "histological examination, control vs treated articular cartilage", "setting": "articular cartilage", "result": "no differences"}]}
{"compound": "O=C1CCCC(=O)O1", "note": "[glutaric anhydride]", "values": [{"measurement": "optical examinations, including slit-lamp biomicroscopy and Shiotz tonometry, treated vs control eyes", "setting": "cat cornea; 7 days following the second treatment, 50 mg/mL", "result": "no differences"}, {"measurement": "Average Post-treat (D), corneal power by topographical mapping", "setting": "cat cornea; right eye (OD), 50 mg/mL in peripheral ring, two applications at Day 1 and Day 7", "result": "38.88 D and 40.68 D"}, {"measurement": "Post-treatment Power (D), corneal power by topographical mapping", "setting": "[1]; 20 mg/mL applied to 2 mm diameter area on apex of central cornea", "result": 41.3, "unit": "D"}, {"measurement": "Post-treatment Power (D), corneal power by topographical mapping", "setting": "[1]; 20 mg/mL applied to about 1 mm wide ring around corneal periphery", "result": "37.4 D and 40.9 D"}, {"measurement": "appearance of eyes by visual examination", "setting": "[1]; after treatment, 20 mg/mL, 1 minute", "result": "appeared clear"}, {"measurement": "increase of refractive power", "setting": "[1]; treatment of the central cornea, 20 mg/mL", "result": "about 0.7 diopters"}, {"measurement": "reduction of corneal power", "setting": "[1]; treatment of the periphery of the cornea, 20 mg/mL", "result": "more than 2 diopters"}, {"measurement": "dermal pliability", "setting": "[2]", "result": "increased"}, {"measurement": "relaxation time", "setting": "[2]", "result": "decreased"}, {"measurement": "dermal thickness after treatment", "setting": "[2]; increased from about 1 mm", "result": "~2", "unit": "mm"}, {"measurement": "thickness of Sample C relative to Sample D", "setting": "dermal tissue; vs Sample D (hydrolyzed solution)", "result": "significantly thicker"}, {"measurement": "elastic and viscous stress-strain curves", "setting": "dermal tissue; vs Sample D (same solution after about 2 minutes, hydrolyzed)", "result": "shifted to higher percent strain"}, {"measurement": "High Modulus Region Pa)", "setting": "articular cartilage", "result": 58.1, "unit": "Pa"}, {"measurement": "Low Region Modulus (Pa)", "setting": "articular cartilage", "result": 26.7, "unit": "Pa"}, {"measurement": "histological examination, control vs treated articular cartilage", "setting": "articular cartilage", "result": "no differences"}, {"measurement": "Strain (%)", "setting": "[3]; dose 50 mg/mL", "result": 79, "unit": "%"}, {"measurement": "Stress (MPa)", "setting": "[3]; dose 50 mg/mL", "result": 2.5, "unit": "MPa"}, {"measurement": "Thickness", "setting": "[3]; dose 50 mg/mL", "result": 1.77, "unit": "mm"}, {"measurement": "Strain (%)", "setting": "[3]; dose 100 mg/mL", "result": 84, "unit": "%"}, {"measurement": "Stress (MPa)", "setting": "[3]; dose 100 mg/mL", "result": 2.7, "unit": "MPa"}, {"measurement": "Thickness", "setting": "[3]; dose 100 mg/mL", "result": 2.55, "unit": "mm"}, {"measurement": "central corneal surface compared to untreated eyes", "setting": "[4]", "result": "clearly depressed or flattened"}, {"measurement": "sclera tissue softening by thumb pressure, treated vs untreated areas", "setting": "[5]", "result": "obvious"}, {"measurement": "low modulus by compression analysis", "setting": "[5]; after 0.2M disodium phosphate pH 9.5", "result": "significant loss of low modulus"}]}
